pIC50: −log10 of the molar value.
What was measured:
PBR = target: T1, PBR (Rattus norvegicus, UniProt P16257); assay: In vivo PBR occupancy by PET (11C-(R)-PK11195) following IP administration; conditions: 30 mg/kg IP
T1 construct: from tissue; host or cells: orthotopic rat C6 glioma in Sprague-Dawley rats, in vivo
Method: (R)-1-(2-chlorophenyl)-N-methyl-N-(1-methyl-propyl)-3-isoquinoline carboxamide (R N-desmethyl PK11195), the precursor for the radioisotope-labeled (R) —PK11195, was purchased from ABX (Radeburg, Germany). The synthesis of ^11C-(R)-PK11195 was accomplished by a modification of the method of Camsonne et al. (J. Label. Compd. Radiopharm., 21: 985-991,1984). Briefly, ^11C-methyl iodide (^11C—CH3I) was transferred by a stream of nitrogen gas at a flow rate of 10 ml/min into a reaction medium containing 1 mg or R—N-desmethyl PK11195 previously dissolved in 0.5 mL of dimethylsulfoxide (DMSO) and about 20 mg of sodium hydroxide. The reaction was initiated at room temperature, with a bubbling of the ^11C—CH3I being continued over a 5 minute period. After bubbling was complete, the reaction mixture was left standing for 5 minutes. Purification was performed by high pressure liquid chromatography (HPLC) using a reverse-phase C18 column and a methanol:ammonium formate (20 mM) (80:20) mixture and a mobile phase at a flow rate of 3 mL/min. ^11C—(R) —PK11195 was eluted at 11 minutes and obtained with a specific radioactivity of […].
In vivo PET studies were performed 14 days post tumor implantation. […] Attenuation correction factors, for each rat (total of 7 animals), were determined using a 10 min ^57Co transmission scan acquired immediately prior to the dynamic scan. […]

[1] = target: T2, peripheral benzodiazepine receptor (PBR) (Rattus norvegicus, UniProt P16257); assay: In-house PBR binding assay ([3H]PK11195, rat heart mitochondrial membranes); conditions: in-house radioligand-binding assay
T2 construct: CBR and PBR were obtained from rat brain and heart membrane-fractions, respectively; from tissue; host or cells: Wistar rat heart membranes

[2] = system: human uterine sarcoma MES-SA; assay: Growth inhibitory MTT assay, MES-SA; type: cell-based; conditions: 72 hours, treated over control
Method: (§1) Growth inhibitory activity of ECO-4601 (Compound 1) and other dibenzodiazepinone analogs was evaluated on a panel of 4 human tumor cell lines: the human uterine sarcoma MES-SA and its doxorubicin-resistant P-glycoprotein over-expressing variant, MES-SA/DX5 as well as non-aggressive and highly aggressive human breast cell lines, MCF-7 and MDA-MB-231, respectively. These four cell lines were obtained from the American Type Culture Collection (Manassas, Va.) and cultured in RPMI plus 10% fetal bovine serum (FBS) and maintained at 37° C. with 5% CO2.
(§2) Exponentially growing cells (5,000 cells per well time; cell number determined with a hemocytometer) were seeded in 96-well flat-bottom plates and allowed to grow overnight. Cells were then incubated for 72 hours with three different concentrations of ECO-4601 or analogs: 30,10, and 3 μM. The in vitro growth inhibitory activity was determined by a commercial MTT assay. All measurements were done in quadruplicate and each experiment was performed 2-3 times. The lower the value, the more cytotoxic is the compound.

[3] = system: MES-SA/DX5 (doxorubicin-resistant P-glycoprotein over-expressing variant); assay: Growth inhibitory MTT assay, MES-SA/DX5; type: cell-based, human; conditions: 72 hours, treated over control
Method: as §1, §2

[4] = system: human breast cell line MCF-7; assay: Growth inhibitory MTT assay, MCF-7; type: cell-based; conditions: 72 hours, treated over control
Method: as §1, §2

[5] = system: human breast cell line MDA-MB-231; assay: Growth inhibitory MTT assay, MDA-MB-231; type: cell-based; conditions: 72 hours, treated over control
Method: as §1, §2

| Molecule | reduction of PBR occupancy for 11C-(R)-PK11195 binding, average (PBR) [%] | pIC50 [1] | % T/C at 10 μM [2] [%] | % T/C at 10 μM [3] [%] | % T/C at 10 μM [4] [%] | % T/C at 10 μM [5] [%] |
| --- | --- | --- | --- | --- | --- | --- |
| 10-farnesyl-4,6,8-trihydroxy-5,10-dihydrodibenzo[b,e][1,4]diazepin-11-one [Compound 1] | 31 | – | – | – | – | – |
| CC(C)=CCC/C(C)=C/CC/C(C)=C/CN1C(=O)c2cccc(O)c2Nc2c1cc(O)c(C1CCCO1)c2O (stereo not drawn) [Compound 100] | – | 8.00 | 18 | 86 | 38 | 43 |
